According to patent US10857153B2, “Pyrimidine compounds containing acidic groups” (Apros Therapeutics, Inc., priority 2018, dated 2020):

Legend:
human TLR7 = biological target: T1, human TLR7 (Homo sapiens, UniProt Q9NYK1); assay: HEK-TLR7 assay (HEK-Blue hTLR7 cells, SEAP reporter); assay type: cell-based; conditions: 16 h
T1 construct: host or cells: HEK293 (HEK-Blue™ hTLR7)
T1 sequence (Q9NYK1 27-1049): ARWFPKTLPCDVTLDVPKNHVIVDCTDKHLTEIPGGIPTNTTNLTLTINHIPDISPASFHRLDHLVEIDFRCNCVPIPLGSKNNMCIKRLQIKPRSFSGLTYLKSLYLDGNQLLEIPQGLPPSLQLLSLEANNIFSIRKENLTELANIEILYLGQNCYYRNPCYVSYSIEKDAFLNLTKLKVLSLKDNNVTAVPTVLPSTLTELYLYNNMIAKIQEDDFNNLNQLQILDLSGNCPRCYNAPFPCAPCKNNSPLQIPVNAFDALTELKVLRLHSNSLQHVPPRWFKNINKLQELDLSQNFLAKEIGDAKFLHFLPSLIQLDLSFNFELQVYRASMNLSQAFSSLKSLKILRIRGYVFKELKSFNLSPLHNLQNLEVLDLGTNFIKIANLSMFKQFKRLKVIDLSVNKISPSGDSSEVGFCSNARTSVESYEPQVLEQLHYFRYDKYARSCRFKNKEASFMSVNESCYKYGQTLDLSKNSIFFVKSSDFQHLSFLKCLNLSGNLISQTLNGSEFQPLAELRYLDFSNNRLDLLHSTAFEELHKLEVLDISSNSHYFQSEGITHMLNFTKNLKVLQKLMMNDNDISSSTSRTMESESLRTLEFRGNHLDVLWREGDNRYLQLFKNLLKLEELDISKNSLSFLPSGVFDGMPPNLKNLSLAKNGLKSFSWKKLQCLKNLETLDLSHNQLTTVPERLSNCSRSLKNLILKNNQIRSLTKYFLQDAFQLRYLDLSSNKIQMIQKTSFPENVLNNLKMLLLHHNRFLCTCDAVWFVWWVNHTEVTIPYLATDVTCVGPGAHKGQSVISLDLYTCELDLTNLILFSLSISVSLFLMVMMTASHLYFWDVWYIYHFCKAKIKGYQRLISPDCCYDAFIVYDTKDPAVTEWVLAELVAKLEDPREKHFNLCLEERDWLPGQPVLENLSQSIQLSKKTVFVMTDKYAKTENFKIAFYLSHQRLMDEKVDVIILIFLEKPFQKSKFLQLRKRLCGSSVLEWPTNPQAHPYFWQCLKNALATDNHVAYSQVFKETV
From the text: HEK-Blue™ TLR7 cells were purchased from Invivogen (San Diego, Calif.). The following description was taken from the product information sheet.
“HEK-Blue™ hTLR7 cells are designed for studying the stimulation of human TLR7 (hTLR7) by monitoring the activation of NF-kB. HEK-Blue™ hTLR7 cells were obtained by co-transfection of the hTLR7 gene and an optimized secreted embryonic alkaline phosphatase (SEAP) reporter gene into HEK293 cells. The SEAP reporter gene is placed under the control of the IFN-b minimal promoter fused to five NF-kB and AP-1-binding sites. Stimulation with a TLR7 ligand activates NF-kB and AP-1 which induce the production of SEAP, which is detected by the HEK-Blue™ Detection cell culture medium.”
A typical assay protocol involved the following steps: • 1. Cells were cultured according to the product information sheet. • 2. 10 mM compound stock in DMSO were first diluted to 3 mM and then 3-fold serially diluted using DMSO to afford a 10-pt dilution. • 3. 3 μl of the diluted DMSO were added to 57 μl HEK-Blue™ Detection media for a further 20-fold dilution. • 4. 10 μl of the diluted compound in assay media were added into 40 μl cell culture (in HEK-Blue™ Detection media) in 384-well plate. Final cell concentration=8,000 cells per well. • 5. The plates were incubated at 37° C. in 5% CO2 for 16 h. SEAP was determined using a spectrophotometer at 620-655 nm.

[1] = Formulation preparation and solubility examination; assay type: physicochemical; conditions: 1 mg/mL in 0.5% carboxy methycellulose in water, pH 6-7
Description: The resulting formulations were vortexed and stored at 4° C. before dosing.

TLR7 = assay: Pharmacodynamic experiment: serum IP-10 after intranasal dosing; assay type: in vivo; conditions: BALB/c mice, 60 micrograms intranasally, 5 hours
Description: IP-10 is a biomarker of TLR7 target activation. Higher production levels of IP-10 is an indication of higher target engagement in vivo. In this study, 3 BALB/c mice per group were dosed intranasally with 60 micrograms of Compound 1B, 2B, 3B, Compound 50 or AZD8848. The test compounds were formulated as a 1 mg/mL solution in 0.5% carboxy methycellulose. Animals were sacrificed after 5 hours. Serum IP-10 concentrations were measured using a commercial ELISA kit purchased from Meso Scale Discovery.

[2] = tested on: CT26 cells stably expressing luciferase; assay: CT26 metastatic lung cancer model; conditions: for median survival time: intranasal, in combination with anti-PD-L1, twice a week, 8 doses; for mean bioluminescence (tumor burden) versus anti-PD-L1 or anti-PD-L1 with Compound 50 or AZD8848: in combination with anti-PD-L1, for more than 20 days after injection of tumor cells
Description: To establish a lung cancer model, 5e5 CT26 cells stably expressing luciferase (Imanis Life Sciences) were injected intravenously into female Balb/c mice on Day 0. On Day 4 post challenge, mice were anesthetized and subjected to whole body bioluminescent imaging (IVIS; Perkin Elmer) to determine tumor burden and in vivo location. Mice with detectable lung tumors were enrolled into the study and randomized such that the average bioluminescence and variance is equivalent amongst all of the study groups. Animals were dosed twice a week for a total of 8 doses with the indicated treatments, and imaged weekly to determine total tumor burden over the course of the treatment.
The known TLR7 compound AZD8848 was used as a comparator and administered in combination with anti-PD-L1 to the mice. […] Each treatment group contained 10 mice.

SMILES | EC50 (human TLR7) | appearance of formulation (solubility) [1] | mean serum IP-10 concentration (TLR7) | median survival time [2] | mean bioluminescence (tumor burden) versus anti-PD-L1 or anti-PD-L1 with Compound 50 or AZD8848 [2]
CCCCOc1nc(N)c2[nH]c(=O)n(CCCN(CCCN3CCOCC3)Cc3cccc(CC(=O)OC)c3)c2n1 [AZD8848, reference compound] | 37 nM | turbid suspension | 96 pg/mL | 23 days | 
CCCC[C@@H](CCS(C)(=O)=O)Nc1nc(N)nc(CCC(=O)O)c1Cc1cc(Cc2nn[nH]n2)ccc1OC [Compound 1B, (S)-3-(5-(5-((2H-tetrazol-5-yl)methyl)-2-methoxybenzyl)-2-amino-6-((1-(methyl-sulfonyl)heptan-3-yl)amino)pyrimidin-4-yl)propanoic acid] | 230 nM |  | about 700 pg/mL | 36 days | lower
CCCC[C@@H](CCO)Nc1nc(N)nc(CCC(=O)O)c1Cc1cc(CC(=O)O)ccc1OC [Compound 2B, (S)-3-(2-amino-5-(5-(carboxymethyl)-2-methoxybenzyl) -6-((1-hydroxyheptan-3-yl)amino)pyrimidin-4-yl)propanoic acid] | 270 nM |  | ~150 pg/mL | 32 days | lower
CCCC[C@@H](CCO)Nc1nc(N)nc(CCC(=O)O)c1Cc1cc(Cc2nn[nH]n2)ccc1OC [Compound 3B, (S)-3-(5-(5-((2H-tetrazol-5-yl)methyl)-2-methoxybenzyl)-2-amino-6-((1-hydroxyheptan-3-yl)amino)pyrimidin-4-yl)propanoic acid] | 270 nM |  | ~1300 pg/mL | 36 days | lower
CCCC[C@@H](CCS(C)(=O)=O)Nc1nc(N)nc(CCC(=O)O)c1Cc1cc(CC(=O)O)ccc1OC [Compound 50, reference compound] | 260 nM | clear | 125 pg/mL | 29 days | 
